# Reference: ChEMBL document CHEMBL1128697, “Synthesis of isoornithines and methylputrescines. An evaluation of their inhibitory effects on ornithine decarboxylase” (J Med Chem, 1995)
# Biological target: T1, Ornithine decarboxylase (Rattus norvegicus, UniProt P09057)
# T1 sequence (P09057 whole entry): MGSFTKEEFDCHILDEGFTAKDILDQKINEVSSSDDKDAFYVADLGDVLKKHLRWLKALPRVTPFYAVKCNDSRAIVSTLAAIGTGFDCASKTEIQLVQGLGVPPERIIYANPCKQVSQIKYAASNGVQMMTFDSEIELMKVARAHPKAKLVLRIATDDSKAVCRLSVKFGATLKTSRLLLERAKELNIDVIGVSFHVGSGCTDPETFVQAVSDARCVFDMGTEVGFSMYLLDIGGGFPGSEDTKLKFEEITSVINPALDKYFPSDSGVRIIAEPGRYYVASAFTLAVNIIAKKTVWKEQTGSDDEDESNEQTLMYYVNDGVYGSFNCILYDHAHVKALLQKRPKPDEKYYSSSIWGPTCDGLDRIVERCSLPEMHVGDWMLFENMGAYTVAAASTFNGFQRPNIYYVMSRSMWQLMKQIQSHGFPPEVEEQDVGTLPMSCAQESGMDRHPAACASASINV
# Experiment: Inhibition of liver Ornithine decarboxylase in thioacetamide-treated rat
row,SMILES,Ki [mM]
1,CC(CN)C(C)(C)CN (stereo unspecified),> 10.5
2,CC(C)(CN)CCN,> 10
3,CC(C)(CN)C(C)(C)CN,> 11
4,CC(C)(CN)C(C)(CN)C(=O)O (stereo unspecified),> 11
5,CC(CN)C(C)(CN)C(=O)O (stereo unspecified),1.65
6,CC(C)(CN)C(CN)C(=O)O (stereo unspecified),> 11
7,CC(CN)(CCN)C(=O)O (stereo unspecified),> 11
8,NCCC(CN)C(=O)O (stereo unspecified),1.79
9,CC(CN)C(CN)C(=O)O (stereo unspecified),0.72
10,CC(CN)C(C)CN (stereo unspecified),6.1
11,NCCCCN [PUTRESCINE],3.5
